Data reported in ChEMBL document CHEMBL5465560, “Selectivity Literature for EUbOPEN Chemogenomic Library” (2024).

Tests used:
[1] = target: MAP/microtubule affinity-regulating kinase 3 (Homo sapiens) (UniProt P27448); experiment: Selectivity interaction (Kinase panel (KiNativ target engagement assay in Jurkat cells)) EUB0001635a MARK3; format: cell-based; conditions: at 1 µM
[2] = target: T1, Ephrin type-B receptor 2 (Homo sapiens) (UniProt P29323); experiment: Selectivity interaction (KinomeScan (DiscoverX)) EUB0000595a EPHB2; conditions: at 10 µM
T1 sequence (whole entry): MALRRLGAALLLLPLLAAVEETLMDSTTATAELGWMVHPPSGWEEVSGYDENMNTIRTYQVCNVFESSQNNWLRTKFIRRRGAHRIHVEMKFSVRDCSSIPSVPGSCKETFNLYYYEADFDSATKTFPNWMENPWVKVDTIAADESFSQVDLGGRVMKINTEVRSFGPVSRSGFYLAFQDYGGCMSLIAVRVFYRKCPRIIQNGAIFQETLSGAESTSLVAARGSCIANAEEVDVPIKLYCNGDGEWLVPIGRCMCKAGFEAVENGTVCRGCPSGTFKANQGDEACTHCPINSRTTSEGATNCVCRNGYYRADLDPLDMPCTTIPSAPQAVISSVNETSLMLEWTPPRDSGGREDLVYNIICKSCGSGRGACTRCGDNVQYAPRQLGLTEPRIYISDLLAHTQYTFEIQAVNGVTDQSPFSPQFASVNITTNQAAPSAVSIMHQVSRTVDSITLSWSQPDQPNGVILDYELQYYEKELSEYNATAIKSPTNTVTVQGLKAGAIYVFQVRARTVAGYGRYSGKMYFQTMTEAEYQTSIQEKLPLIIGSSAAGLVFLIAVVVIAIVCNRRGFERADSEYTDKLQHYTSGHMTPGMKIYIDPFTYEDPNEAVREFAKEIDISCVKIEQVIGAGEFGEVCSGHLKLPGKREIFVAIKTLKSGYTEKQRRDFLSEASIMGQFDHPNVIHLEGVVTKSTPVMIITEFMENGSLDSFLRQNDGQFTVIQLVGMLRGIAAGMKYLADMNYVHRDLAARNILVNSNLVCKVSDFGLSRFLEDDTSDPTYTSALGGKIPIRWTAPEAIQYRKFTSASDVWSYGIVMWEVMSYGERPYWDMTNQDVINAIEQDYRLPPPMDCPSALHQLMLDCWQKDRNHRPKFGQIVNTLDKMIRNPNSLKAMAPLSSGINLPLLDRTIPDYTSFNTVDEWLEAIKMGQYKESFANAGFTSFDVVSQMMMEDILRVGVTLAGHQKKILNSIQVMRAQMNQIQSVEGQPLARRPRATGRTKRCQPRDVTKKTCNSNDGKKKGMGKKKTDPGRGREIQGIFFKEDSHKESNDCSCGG

[3] = target: Cyclin-dependent kinase-like 1 (Homo sapiens) (UniProt Q00532); experiment: Selectivity interaction (Kinase panel (DSF assay)) EUB0001559a CDKL1
Cyclin-dependent kinase-like 1 (Homo sapiens), sequence (Q00532 whole entry): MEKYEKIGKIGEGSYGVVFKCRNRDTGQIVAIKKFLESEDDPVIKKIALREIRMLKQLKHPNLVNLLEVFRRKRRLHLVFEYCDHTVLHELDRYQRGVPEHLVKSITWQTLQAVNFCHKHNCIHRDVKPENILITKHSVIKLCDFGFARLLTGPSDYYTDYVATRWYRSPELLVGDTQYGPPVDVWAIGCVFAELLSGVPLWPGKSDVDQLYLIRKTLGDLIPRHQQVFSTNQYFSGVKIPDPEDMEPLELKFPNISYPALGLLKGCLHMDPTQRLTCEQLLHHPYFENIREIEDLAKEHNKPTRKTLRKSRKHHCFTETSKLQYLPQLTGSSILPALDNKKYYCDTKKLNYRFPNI

[4] = target: T2, Phosphatidylinositol 5-phosphate 4-kinase type-2 beta (Homo sapiens) (UniProt P78356); experiment: Selectivity interaction (KinomeScan (DiscoverX)) EUB0000045b PIP4K2B
T2 sequence (whole entry): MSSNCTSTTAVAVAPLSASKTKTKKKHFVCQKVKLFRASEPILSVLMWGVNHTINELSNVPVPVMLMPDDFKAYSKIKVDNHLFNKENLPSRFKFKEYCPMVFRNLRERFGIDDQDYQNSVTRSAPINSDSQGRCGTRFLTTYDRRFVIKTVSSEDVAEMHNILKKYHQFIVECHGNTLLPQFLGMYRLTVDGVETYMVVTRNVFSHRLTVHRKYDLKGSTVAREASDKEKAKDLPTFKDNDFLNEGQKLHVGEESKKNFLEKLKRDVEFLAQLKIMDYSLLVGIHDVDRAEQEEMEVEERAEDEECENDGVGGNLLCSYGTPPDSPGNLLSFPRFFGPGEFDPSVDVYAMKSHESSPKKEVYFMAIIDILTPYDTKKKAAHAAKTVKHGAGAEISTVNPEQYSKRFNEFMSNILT

[5] = target: Dual specificity protein kinase CLK4 (Homo sapiens, UniProt Q9HAZ1); experiment: Selectivity interaction (LanthaScreen Eu Kinase Binding Assay) EUB0001632a CLK4; conditions: at 10 µM
Dual specificity protein kinase CLK4, sequence (Q9HAZ1 whole entry, looked up): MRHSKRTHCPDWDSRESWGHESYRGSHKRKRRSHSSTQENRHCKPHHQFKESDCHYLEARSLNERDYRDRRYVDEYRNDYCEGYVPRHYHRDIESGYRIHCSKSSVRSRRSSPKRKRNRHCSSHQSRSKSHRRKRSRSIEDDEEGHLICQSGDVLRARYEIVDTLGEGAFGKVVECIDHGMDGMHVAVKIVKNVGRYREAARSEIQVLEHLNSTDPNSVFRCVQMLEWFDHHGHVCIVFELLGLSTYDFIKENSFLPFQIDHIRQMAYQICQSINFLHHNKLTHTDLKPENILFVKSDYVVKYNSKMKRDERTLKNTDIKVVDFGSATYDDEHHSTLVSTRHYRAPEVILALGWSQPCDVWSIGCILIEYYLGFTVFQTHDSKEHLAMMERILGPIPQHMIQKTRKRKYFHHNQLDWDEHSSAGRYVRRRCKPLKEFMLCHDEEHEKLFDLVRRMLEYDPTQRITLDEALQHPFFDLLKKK

[6] = tested on: eIF-2-alpha kinase GCN2 (Homo sapiens), Q9P2K8 [S808G]; experiment: Selectivity interaction (KinomeScan (DiscoverX)) EUB0000666a EIF2AK4; conditions: at 10 µM
[7] = target: Mitogen-activated protein kinase 8 (Homo sapiens, UniProt P45983); conditions: at 10 µM
Mitogen-activated protein kinase 8, sequence (P45983 whole entry): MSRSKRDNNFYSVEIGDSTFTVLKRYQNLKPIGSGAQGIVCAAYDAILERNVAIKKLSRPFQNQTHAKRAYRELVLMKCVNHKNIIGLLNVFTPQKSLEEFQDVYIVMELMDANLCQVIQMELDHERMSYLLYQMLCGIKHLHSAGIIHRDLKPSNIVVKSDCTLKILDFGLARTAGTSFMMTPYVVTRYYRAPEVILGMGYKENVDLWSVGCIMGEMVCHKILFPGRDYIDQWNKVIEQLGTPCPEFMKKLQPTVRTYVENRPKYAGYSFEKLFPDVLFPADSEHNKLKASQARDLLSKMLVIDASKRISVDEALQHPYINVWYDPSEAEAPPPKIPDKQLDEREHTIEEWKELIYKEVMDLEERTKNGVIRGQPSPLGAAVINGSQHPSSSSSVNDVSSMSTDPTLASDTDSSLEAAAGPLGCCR

[8] = target: Sigma non-opioid intracellular receptor 1 (Homo sapiens) (UniProt Q99720); experiment: Selectivity interaction (Eurofins CEREP Diversity Profile (receptors and ion channels)) EUB0000279b SIGMAR1; conditions: at 10 µM
Sigma non-opioid intracellular receptor 1 (Homo sapiens), sequence (Q99720 whole entry): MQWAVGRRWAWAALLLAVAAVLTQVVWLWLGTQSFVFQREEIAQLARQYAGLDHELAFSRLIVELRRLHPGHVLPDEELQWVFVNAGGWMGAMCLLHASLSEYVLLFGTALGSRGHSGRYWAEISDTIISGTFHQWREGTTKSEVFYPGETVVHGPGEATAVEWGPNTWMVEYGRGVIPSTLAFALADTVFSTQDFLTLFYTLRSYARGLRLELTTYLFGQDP

[9] = target: Cyclin-dependent kinase 7 (Homo sapiens, UniProt P50613); experiment: Selectivity interaction (KinomeScan (DiscoverX)) EUB0001619a CDK7; conditions: at 1 µM
Cyclin-dependent kinase 7, sequence (P50613 whole entry): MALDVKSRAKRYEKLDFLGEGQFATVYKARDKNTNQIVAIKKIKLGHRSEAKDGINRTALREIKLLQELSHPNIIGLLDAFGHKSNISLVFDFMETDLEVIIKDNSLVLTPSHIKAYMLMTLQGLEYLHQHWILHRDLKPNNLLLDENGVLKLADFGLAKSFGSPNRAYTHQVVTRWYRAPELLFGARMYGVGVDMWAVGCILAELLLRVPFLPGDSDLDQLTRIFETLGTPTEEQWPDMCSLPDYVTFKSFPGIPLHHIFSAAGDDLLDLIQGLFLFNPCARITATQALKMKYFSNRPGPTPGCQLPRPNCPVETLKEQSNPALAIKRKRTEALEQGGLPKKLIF

[10] = target: Serine/threonine-protein kinase MARK2 (Homo sapiens) (UniProt Q7KZI7); experiment: Selectivity interaction (KinomeScan (DiscoverX)) EUB0001619a MARK2; conditions: at 1 µM
Serine/threonine-protein kinase MARK2 (Homo sapiens), sequence (Q7KZI7 whole entry): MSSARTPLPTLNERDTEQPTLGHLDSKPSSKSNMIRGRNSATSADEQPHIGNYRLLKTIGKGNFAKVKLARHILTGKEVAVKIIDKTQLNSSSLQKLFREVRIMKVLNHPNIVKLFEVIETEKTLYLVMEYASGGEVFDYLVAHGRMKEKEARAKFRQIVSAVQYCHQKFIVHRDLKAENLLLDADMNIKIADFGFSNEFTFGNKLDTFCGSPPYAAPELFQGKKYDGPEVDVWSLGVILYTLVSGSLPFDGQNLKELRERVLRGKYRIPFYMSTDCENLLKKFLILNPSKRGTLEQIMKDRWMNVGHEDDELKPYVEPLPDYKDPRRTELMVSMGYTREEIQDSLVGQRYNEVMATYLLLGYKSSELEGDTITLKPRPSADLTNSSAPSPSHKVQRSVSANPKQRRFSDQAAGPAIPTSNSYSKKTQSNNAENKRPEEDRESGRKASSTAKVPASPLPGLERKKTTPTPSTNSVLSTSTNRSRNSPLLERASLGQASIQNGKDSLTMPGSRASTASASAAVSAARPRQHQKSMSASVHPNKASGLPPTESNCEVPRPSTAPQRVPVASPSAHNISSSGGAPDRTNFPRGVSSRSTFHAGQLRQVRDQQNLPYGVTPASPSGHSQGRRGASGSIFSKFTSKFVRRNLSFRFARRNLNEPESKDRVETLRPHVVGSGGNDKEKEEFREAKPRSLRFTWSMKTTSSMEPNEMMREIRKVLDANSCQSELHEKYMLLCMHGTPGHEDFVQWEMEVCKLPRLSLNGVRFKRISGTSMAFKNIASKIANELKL

[11] = target: T3, Mitogen-activated protein kinase 12 (Homo sapiens) (UniProt P53778); experiment: Selectivity interaction (ActivX KiNativ screen (ex vivo kinase selectivity in human PBMCs)) EUB0001619a MAPK12; format: cell-based; conditions: PBMC, at 1 µM
T3 sequence (whole entry): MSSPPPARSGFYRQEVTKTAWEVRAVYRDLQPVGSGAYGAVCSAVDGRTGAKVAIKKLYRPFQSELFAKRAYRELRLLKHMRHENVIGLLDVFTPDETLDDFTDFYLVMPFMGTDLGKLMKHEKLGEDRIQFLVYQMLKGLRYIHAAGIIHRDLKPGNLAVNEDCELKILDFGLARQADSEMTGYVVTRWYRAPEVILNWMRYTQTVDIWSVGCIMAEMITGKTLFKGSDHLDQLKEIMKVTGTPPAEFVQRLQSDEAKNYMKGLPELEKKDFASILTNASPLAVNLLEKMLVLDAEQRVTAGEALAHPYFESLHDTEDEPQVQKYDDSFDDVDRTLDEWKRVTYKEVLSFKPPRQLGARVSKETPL

[12] = target: Dual specificity tyrosine-phosphorylation-regulated kinase 1A (Homo sapiens, UniProt Q13627); experiment: Selectivity interaction (KinomeScan (DiscoverX)) EUB0000607a DYRK1A; conditions: at 10 µM
[13] = target: Cyclin-dependent kinase 10 (Homo sapiens) (UniProt Q15131); experiment: Selectivity interaction (ActivX KiNativ screen (kinase selectivity in THP-1 cell lysates)) EUB0000639a CDK10; format: subcellular; conditions: lysate
Cyclin-dependent kinase 10 (Homo sapiens), sequence (Q15131 whole entry): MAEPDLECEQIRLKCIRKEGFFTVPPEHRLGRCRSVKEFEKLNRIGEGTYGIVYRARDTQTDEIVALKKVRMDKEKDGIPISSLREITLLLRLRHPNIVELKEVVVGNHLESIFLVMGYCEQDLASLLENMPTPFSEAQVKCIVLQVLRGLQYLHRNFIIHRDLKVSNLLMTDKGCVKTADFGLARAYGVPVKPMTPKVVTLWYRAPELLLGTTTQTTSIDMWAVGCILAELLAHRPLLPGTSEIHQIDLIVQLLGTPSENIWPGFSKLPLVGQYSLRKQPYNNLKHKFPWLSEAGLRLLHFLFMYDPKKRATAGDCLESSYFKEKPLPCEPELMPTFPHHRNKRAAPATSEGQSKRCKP

[14] = target: Serine/threonine-protein kinase PLK2 (Homo sapiens, UniProt Q9NYY3); experiment: Selectivity interaction (Ambit KINOMEscan and KiNATiv profiling in Jurkat cells) EUB0000090b PLK2; format: cell-based; conditions: at 1 µM
Serine/threonine-protein kinase PLK2, sequence (Q9NYY3 whole entry, looked up): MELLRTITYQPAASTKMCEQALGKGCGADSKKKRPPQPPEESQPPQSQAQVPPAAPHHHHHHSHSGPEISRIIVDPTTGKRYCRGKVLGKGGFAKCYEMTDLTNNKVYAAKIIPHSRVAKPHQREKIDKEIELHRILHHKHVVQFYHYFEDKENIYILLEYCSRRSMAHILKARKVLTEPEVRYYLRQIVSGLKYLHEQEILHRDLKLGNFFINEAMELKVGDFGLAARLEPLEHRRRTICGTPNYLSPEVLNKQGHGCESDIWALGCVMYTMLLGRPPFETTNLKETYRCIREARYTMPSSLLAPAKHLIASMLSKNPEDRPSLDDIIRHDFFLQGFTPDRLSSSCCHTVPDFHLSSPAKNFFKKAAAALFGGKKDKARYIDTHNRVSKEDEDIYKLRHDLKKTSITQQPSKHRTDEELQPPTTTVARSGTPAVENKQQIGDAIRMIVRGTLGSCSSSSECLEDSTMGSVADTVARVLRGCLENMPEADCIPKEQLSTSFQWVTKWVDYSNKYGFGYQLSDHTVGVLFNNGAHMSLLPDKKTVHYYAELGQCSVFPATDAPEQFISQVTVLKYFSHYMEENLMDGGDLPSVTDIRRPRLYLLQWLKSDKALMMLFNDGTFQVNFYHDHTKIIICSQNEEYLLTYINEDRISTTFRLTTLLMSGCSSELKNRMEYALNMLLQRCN

MAP/microtubule affinity-regulating kinase 3 (Homo sapiens), sequence (P27448 whole entry, looked up): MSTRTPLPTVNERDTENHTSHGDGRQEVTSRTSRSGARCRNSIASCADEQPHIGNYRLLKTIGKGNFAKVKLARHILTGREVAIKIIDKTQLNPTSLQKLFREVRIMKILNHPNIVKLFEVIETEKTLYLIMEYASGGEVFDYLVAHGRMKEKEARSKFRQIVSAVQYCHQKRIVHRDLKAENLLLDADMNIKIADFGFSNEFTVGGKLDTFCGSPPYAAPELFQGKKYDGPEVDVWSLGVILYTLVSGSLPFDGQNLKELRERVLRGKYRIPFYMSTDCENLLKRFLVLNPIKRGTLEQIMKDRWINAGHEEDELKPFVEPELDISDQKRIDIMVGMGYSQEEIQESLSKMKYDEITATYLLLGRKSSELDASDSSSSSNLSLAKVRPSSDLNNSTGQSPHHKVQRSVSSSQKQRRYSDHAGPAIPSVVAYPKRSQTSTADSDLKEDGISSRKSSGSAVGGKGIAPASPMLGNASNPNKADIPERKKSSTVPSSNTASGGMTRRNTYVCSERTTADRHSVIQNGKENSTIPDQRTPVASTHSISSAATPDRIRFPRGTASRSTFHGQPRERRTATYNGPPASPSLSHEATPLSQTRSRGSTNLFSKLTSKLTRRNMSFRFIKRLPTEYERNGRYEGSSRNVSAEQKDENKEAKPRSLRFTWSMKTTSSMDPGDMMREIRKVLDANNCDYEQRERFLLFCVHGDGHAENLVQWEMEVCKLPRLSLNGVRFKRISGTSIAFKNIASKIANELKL

C=CC(=O)Nc1ccc(C(=O)Nc2[nH]nc3c2CN(C(=O)N[C@H](CN(C)C)c2ccccc2)C3(C)C)cc1
% of engagement ([1]; Selectivity number of off-targets 0.0, Selectivity number of targets 233.0, Source Knowledge https://www.sciencedirect.com/science/article/pii/S2451945619300674?via%3Dihub): 16.4% | % of engagement [1]: 19.1%

COCC(=O)NC/C=C/c1ccc2ncnc(Nc3ccc(Oc4ccc(C)nc4)c(C)c3)c2c1 [CP-724714]
% of control [2]: 100%

CN(C(=O)c1cnn2cccnc12)c1cc2c(cc1N1CCOCC1)C(=O)N(C[C@@H](F)C(C)(C)O)C2
dTM [3]: 1.2 K

C=CC(=O)Nc1cc(-n2c(=O)ccc3cnc4ccc(-c5ccc(NS(C)(=O)=O)cc5)cc4c32)ccc1C
% of control ([4]; at 1 µM): 93% | % of control ([4]; at 10 µM): 63%

Cn1cc(-n2cnc3c(NCc4nc5cc(Cl)c(Cl)cc5[nH]4)nc(N4CCOCC4)nc32)cn1
% of inhibition [5]: 12.3%

O=C(NOC[C@H](O)CO)c1ccc(F)c(F)c1Nc1ccc(I)cc1F
% of control [6]: 84%

Cc1cc([C@@H](C)Nc2ccccc2C(=O)O)c2nc(N3CCOCC3)cc(=O)n2c1 [AZD-6482]
% of control [7]: 100%

CC(=O)c1cc(-c2ccccc2OCC2CC2)c2ncccn12
% of control [8]: 98%

N#Cc1cccc(-c2c[nH]c3ncnc(N4CCOCC4)c23)c1
% of control [9]: 81% | % of control [10]: 43% | % of inhibition [11]: -6%

CNC(=O)Nc1ccc(-c2nc(N3CC4CCC(C3)O4)c3cnn(C4CCC5(CC4)OCCO5)c3n2)cc1
% of control [12]: 100%

CC[C@@H]1[C@H](F)C(=O)N[C@@H]1COc1nccc2cc(C(N)=O)c(OC)cc12 [ZIMLOVISERTIB]
% of inhibition ([13]; at 0.01 µM): 0.5% | % of inhibition ([13]; at 0.04 µM): 6.6% | % of inhibition ([13]; at 0.2 µM): -14.2% | % of inhibition ([13]; at 1 µM): 6.3% | % of inhibition ([13]; at 5 µM): 19.6%

CN(C)C/C=C/C(=O)Nc1ccc(C(=O)N2CCCC(Nc3ncc(Cl)c(-c4c[nH]c5ccccc45)n3)C2)cc1 (stereo not given)
% of control [14]: 89%
